In the NIST ThermoML archive (doi:10.1016/j.fluid.2005.06.010):

Assay: xn = mol fraction of the nth substance listed
Conditions: Fluid (supercritical or subcritical phases), Vibrating tube method

c1ccc2ccccc2c1 [naphthalene] + O=C=O
Conditions | mass density [kg/m3]
313.11 K, 8747 kPa, x1 = 0.0049 | 531.42
313.11 K, 8855 kPa, x1 = 0.0049 | 556.55
313.11 K, 8983 kPa, x1 = 0.0093 | 627.46
313.11 K, 9034 kPa, x1 = 0.0093 | 633.13
313.11 K, 9048 kPa, x1 = 0.0049 | 590.85
313.11 K, 9499 kPa, x1 = 0.0049 | 639
313.11 K, 9997 kPa, x1 = 0.0049 | 670.97
313.11 K, 10053 kPa, x1 = 0.0093 | 697.27
313.11 K, 11012 kPa, x1 = 0.0049 | 712.47
313.11 K, 11036 kPa, x1 = 0.0093 | 731.61
313.11 K, 11998 kPa, x1 = 0.0093 | 755.87
313.11 K, 12044 kPa, x1 = 0.0049 | 741.27
313.11 K, 12486 kPa, x1 = 0.0173 | 783.64
313.11 K, 12995 kPa, x1 = 0.0049 | 761.49
313.11 K, 13003 kPa, x1 = 0.0093 | 775.73
313.11 K, 13034 kPa, x1 = 0.0173 | 790.35
313.11 K, 14017 kPa, x1 = 0.0049 | 779.61
313.11 K, 14028 kPa, x1 = 0.0093 | 792.52
313.11 K, 14045 kPa, x1 = 0.0173 | 805.22
313.11 K, 14979 kPa, x1 = 0.0049 | 794.2
313.11 K, 14995 kPa, x1 = 0.0093 | 806.12
313.11 K, 15031 kPa, x1 = 0.0173 | 818.06
313.11 K, 16007 kPa, x1 = 0.0093 | 818.64
313.11 K, 16029 kPa, x1 = 0.0049 | 808.12
313.11 K, 16046 kPa, x1 = 0.0173 | 829.54
313.11 K, 16999 kPa, x1 = 0.0049 | 819.57
313.11 K, 17003 kPa, x1 = 0.0093 | 829.62
313.11 K, 17015 kPa, x1 = 0.0173 | 839.94
313.11 K, 18017 kPa, x1 = 0.0173 | 849.35
313.11 K, 18019 kPa, x1 = 0.0093 | 839.78
313.11 K, 18053 kPa, x1 = 0.0049 | 830.86
313.11 K, 19023 kPa, x1 = 0.0049 | 840.37
313.11 K, 19029 kPa, x1 = 0.0093 | 849.05
313.11 K, 19030 kPa, x1 = 0.0173 | 858.05
313.11 K, 19995 kPa, x1 = 0.0093 | 857.27
313.11 K, 20008 kPa, x1 = 0.0049 | 849.27
313.11 K, 20013 kPa, x1 = 0.0173 | 865.93
313.11 K, 20987 kPa, x1 = 0.0049 | 857.52
313.11 K, 20997 kPa, x1 = 0.0093 | 865.26
313.11 K, 21031 kPa, x1 = 0.0173 | 873.48
313.11 K, 21996 kPa, x1 = 0.0049 | 865.5
313.11 K, 22000 kPa, x1 = 0.0093 | 872.7
313.11 K, 22008 kPa, x1 = 0.0173 | 880.38
313.11 K, 22977 kPa, x1 = 0.0049 | 872.82
313.11 K, 22989 kPa, x1 = 0.0173 | 886.86
313.11 K, 22998 kPa, x1 = 0.0093 | 879.67
313.11 K, 24021 kPa, x1 = 0.0093 | 886.44
313.11 K, 24036 kPa, x1 = 0.0173 | 893.38
313.11 K, 24043 kPa, x1 = 0.0049 | 880.36
313.11 K, 24684 kPa, x1 = 0.0173 | 897.25
313.11 K, 24941 kPa, x1 = 0.0093 | 892.28
313.13 K, 10564 kPa, x1 = 0.0144 | 726.54
313.13 K, 10994 kPa, x1 = 0.0144 | 737.45
313.13 K, 12022 kPa, x1 = 0.0144 | 761.26
313.13 K, 13026 kPa, x1 = 0.0144 | 779.83
313.13 K, 13996 kPa, x1 = 0.0144 | 794.9
313.13 K, 15027 kPa, x1 = 0.0144 | 808.74
313.13 K, 16009 kPa, x1 = 0.0144 | 820.49
313.13 K, 16978 kPa, x1 = 0.0144 | 831.02
313.13 K, 17970 kPa, x1 = 0.0144 | 840.48
313.13 K, 19038 kPa, x1 = 0.0144 | 850.11
313.13 K, 20010 kPa, x1 = 0.0144 | 858.26
313.13 K, 21047 kPa, x1 = 0.0144 | 866.4
313.13 K, 22028 kPa, x1 = 0.0144 | 873.6
313.13 K, 23018 kPa, x1 = 0.0144 | 880.48
313.13 K, 24032 kPa, x1 = 0.0144 | 887.14
313.13 K, 25059 kPa, x1 = 0.0144 | 893.55
318.03 K, 13470 kPa, x1 = 0.0198 | 763.8
318.03 K, 13587 kPa, x1 = 0.0198 | 765.92
318.03 K, 13765 kPa, x1 = 0.0198 | 769.11
318.03 K, 13870 kPa, x1 = 0.0198 | 770.92
318.03 K, 13982 kPa, x1 = 0.0198 | 772.89
318.03 K, 14098 kPa, x1 = 0.0198 | 774.83
318.03 K, 14247 kPa, x1 = 0.0198 | 777.23
318.03 K, 14369 kPa, x1 = 0.0198 | 779.18
318.03 K, 14487 kPa, x1 = 0.0198 | 781.08
318.03 K, 14571 kPa, x1 = 0.0198 | 782.37
318.03 K, 14668 kPa, x1 = 0.0198 | 783.91
318.03 K, 14765 kPa, x1 = 0.0198 | 785.29
318.03 K, 14877 kPa, x1 = 0.0198 | 787
318.03 K, 14970 kPa, x1 = 0.0198 | 788.42
318.03 K, 15080 kPa, x1 = 0.0198 | 789.97
318.03 K, 15304 kPa, x1 = 0.0198 | 793.1
318.03 K, 15487 kPa, x1 = 0.0198 | 795.62
318.03 K, 16010 kPa, x1 = 0.0198 | 802.31
318.03 K, 16995 kPa, x1 = 0.0198 | 813.73
318.03 K, 17979 kPa, x1 = 0.0198 | 824.06
318.03 K, 18989 kPa, x1 = 0.0198 | 833.74
318.03 K, 20016 kPa, x1 = 0.0198 | 842.78
318.03 K, 20955 kPa, x1 = 0.0198 | 850.43
318.03 K, 21951 kPa, x1 = 0.0198 | 858.04
318.03 K, 22703 kPa, x1 = 0.0198 | 863.41
318.07 K, 18008 kPa, x1 = 0.0235 | 829.61
318.07 K, 18511 kPa, x1 = 0.0235 | 834.41
318.07 K, 19022 kPa, x1 = 0.0235 | 839.2
318.07 K, 19528 kPa, x1 = 0.0235 | 843.76
318.07 K, 20035 kPa, x1 = 0.0235 | 848.15
318.07 K, 20519 kPa, x1 = 0.0235 | 852.18
318.07 K, 21009 kPa, x1 = 0.0235 | 856.16
318.07 K, 22034 kPa, x1 = 0.0235 | 864
318.07 K, 23008 kPa, x1 = 0.0235 | 870.96
318.07 K, 23971 kPa, x1 = 0.0235 | 877.49
318.07 K, 24665 kPa, x1 = 0.0235 | 882.02
318.08 K, 12165 kPa, x1 = 0.0144 | 719.15
318.08 K, 12357 kPa, x1 = 0.0144 | 724.21
318.08 K, 12493 kPa, x1 = 0.0144 | 727.5
318.08 K, 13016 kPa, x1 = 0.0144 | 739.71
318.08 K, 13476 kPa, x1 = 0.0144 | 749.33
318.08 K, 14019 kPa, x1 = 0.0144 | 759.61
318.08 K, 14983 kPa, x1 = 0.0144 | 775.77
318.08 K, 14983 kPa, x1 = 0.0173 | 784.34
318.08 K, 15997 kPa, x1 = 0.0144 | 790.28
318.08 K, 16066 kPa, x1 = 0.0173 | 799.24
318.08 K, 16997 kPa, x1 = 0.0144 | 803.04
318.08 K, 16997 kPa, x1 = 0.0173 | 810.5
318.08 K, 17981 kPa, x1 = 0.0144 | 814.33
318.08 K, 18010 kPa, x1 = 0.0173 | 821.53
318.08 K, 18981 kPa, x1 = 0.0144 | 824.7
318.08 K, 19014 kPa, x1 = 0.0173 | 831.51
318.08 K, 20037 kPa, x1 = 0.0173 | 840.84
318.08 K, 20042 kPa, x1 = 0.0144 | 834.82
318.08 K, 20902 kPa, x1 = 0.0144 | 842.42
318.08 K, 20967 kPa, x1 = 0.0173 | 848.79
318.08 K, 21935 kPa, x1 = 0.0144 | 850.92
318.08 K, 22018 kPa, x1 = 0.0173 | 857.06
318.08 K, 22960 kPa, x1 = 0.0144 | 858.89
318.08 K, 22995 kPa, x1 = 0.0173 | 864.32
318.08 K, 23932 kPa, x1 = 0.0144 | 865.94
318.08 K, 23962 kPa, x1 = 0.0173 | 871.14
318.08 K, 24764 kPa, x1 = 0.0173 | 876.56
318.08 K, 24829 kPa, x1 = 0.0144 | 872.11
318.11 K, 9524 kPa, x1 = 0.0065 | 513.41
318.11 K, 9601 kPa, x1 = 0.0049 | 505.2
318.11 K, 9622 kPa, x1 = 0.0065 | 527.97
318.11 K, 9697 kPa, x1 = 0.0049 | 521.21
318.11 K, 9722 kPa, x1 = 0.0065 | 543.81
318.11 K, 9775 kPa, x1 = 0.0049 | 532.95
318.11 K, 9801 kPa, x1 = 0.0065 | 554.22
318.11 K, 9898 kPa, x1 = 0.0065 | 566.44
318.11 K, 9974 kPa, x1 = 0.0049 | 559.06
318.11 K, 9975 kPa, x1 = 0.0065 | 575.84
318.11 K, 10075 kPa, x1 = 0.0065 | 586.3
318.11 K, 10181 kPa, x1 = 0.0065 | 596.66
318.11 K, 10293 kPa, x1 = 0.0065 | 606.9
318.11 K, 10405 kPa, x1 = 0.0065 | 616.37
318.11 K, 10523 kPa, x1 = 0.0049 | 610.25
318.11 K, 10629 kPa, x1 = 0.0065 | 632.61
318.11 K, 10763 kPa, x1 = 0.0093 | 652.77
318.11 K, 10830 kPa, x1 = 0.0065 | 645.51
318.11 K, 10978 kPa, x1 = 0.0093 | 663.58
318.11 K, 10980 kPa, x1 = 0.0049 | 639.71
318.11 K, 11049 kPa, x1 = 0.0065 | 657.73
318.11 K, 11516 kPa, x1 = 0.0065 | 679.19
318.11 K, 11989 kPa, x1 = 0.0093 | 702.27
318.11 K, 12007 kPa, x1 = 0.0049 | 684.72
318.11 K, 12072 kPa, x1 = 0.0065 | 699.49
318.11 K, 12537 kPa, x1 = 0.0065 | 713.68
318.11 K, 12998 kPa, x1 = 0.0093 | 729.76
318.11 K, 13017 kPa, x1 = 0.0065 | 726.51
318.11 K, 13024 kPa, x1 = 0.0049 | 715.37
318.11 K, 13986 kPa, x1 = 0.0049 | 737.86
318.11 K, 14066 kPa, x1 = 0.0093 | 752.41
318.11 K, 14069 kPa, x1 = 0.0065 | 749.53
318.11 K, 14967 kPa, x1 = 0.0093 | 768.35
318.11 K, 14970 kPa, x1 = 0.0049 | 756.77
318.11 K, 15010 kPa, x1 = 0.0065 | 766.43
318.11 K, 15879 kPa, x1 = 0.0065 | 779.94
318.11 K, 15977 kPa, x1 = 0.0049 | 773.28
